Results from paper PMC10011747, “Targeting androgen receptor and the variants by an orally bioavailable Proteolysis Targeting Chimeras compound in castration resistant prostate cancer” (eBioMedicine, 2023).

Assays:
LNCaP cells = assay: alamarBlue cell viability, LNCaP; assay type: cell-based; conditions: Homo sapiens, 168 h, 7 days treatment, normal hormone condition
Protocol: (§1) Cells were seeded in triplicate in 96-well plates 1 day prior to drug treatment for all assays. For viability test and IC50 assessment, the alamarBlue™ Cell Viability Reagent (Thermo Fisher Scientific) was added to cells 7 days after PROTAC treatment, followed by fluorescence detection as the manufacturer instructed. The IC50 was calculated by dose-inhibition regression. For proliferation monitoring, 2, 4, 6 and 8 days after PROTAC treatment (day 0), viable cells were detected by MTT Cell Proliferation Kit I (Sigma–Aldrich) according to the manufacturer's instructions. Cellular caspase activity was measured by Caspase-Glo 3/7 Assay System (Promega) 1 or 2 days after the drug treatment.

[1] = Metabolic stability in liver microsomes; assay type: in vitro ADME; conditions: pooled liver microsomes, pH 7.4, mouse CD-1 liver microsome 0.8 mg/mL, read-out: MLM stability T1/2
Protocol: The mouse CD-1 pooled liver microsome (Corning Product ID: 452701, Lot: 0010003) was used to test compound stability. The reaction was carried out in 100 mM, pH 7.4 phosphate buffer containing microsome (0.8 mg/mL), NADP^+ (1.3 mM), glucose-6-phosphate (3.3 mM), glucose-6-phosphate dehydrogenase (0.4 U/mL), magnesium chloride (3.3 mM) and the test article (1 μM) with 1% (v/v) final concentration of DMSO. The reaction was incubated at 37 °C with shaking. At 0, 10, 20, and 30 min time points, 20 μL of the reaction mixture was taken and quenched immediately with 120 μL acetonitrile. The quenched sample were centrifuged, and the supernatant was then analyzed by LC-MS/MS (ABI4000Q-TRAP). 1 μM warfarin and 1 μM verapamil with same reaction conditions was used as negative and positive control, respectively.

[2] = In vitro stability in plasma; assay type: in vitro ADME; conditions: mouse, BALB/c mice plasma, 37 °C, read-out: Plasma stability T1/2
Protocol: The in vitro stability of the PROTAC compounds was performed in BALB/C (BALB/cAnNCrlBltw) mice plasma. The reactions were initiated by adding 10 μM PROTAC compounds to 0.5 mL of pre-warmed plasma solution. The assays were performed in Thermomixer at 37 °C. During the incubation, 20 μL samples were taken at 0, 30, 60, 120, and 240 min time points, and added to 120 μL of acetonitrile to deproteinize the plasma. After 10 min of centrifugation at 14,000 rpm, the supernatants were collected for subsequent HPLC-UV analysis (Waters 1525 Binary and 2707 Autosampler).

[3] = system: AR-negative PC3 prostate cancer model; assay: PC3 xenograft negative control study; assay type: in vivo, mouse; conditions: PO 100 mg/kg twice daily
Protocol: Immunodifficient male C.B-17 SCID mice (NOD.CB17-Prkdc^scid/NcrCrlBltw) at 4–6 weeks of age were purchased from BioLASCO Taiwan Co., Ilan, Taiwan. All mice were housed in conventional cages in the AAALAC Full Accreditation (2011) in Industrial Technology Research Institute and were allowed to acclimatize and recover from shipping-related stress for one week prior to the study. The health of the mice was monitored by daily observations. Animals were kept in rooms at temperature of 22–26 °C with 40–70% humidity, positive pressure, 60% air recirculation, ventilation rate 15–20 changes per hour, and a controlled light–dark cycle (12–12 h). […] Tumors were measured with calipers, and tumor size was calculated as follows: tumor volume (V) = (L × S^2)/2 (L, longest diameter, mm; S, shortest diameter, mm). […] Tumor size and body weight of the animals were monitored and recorded two to three times per week. […] The drug antitumor efficacy was presented as percentages of TGI of each tested animal, calculated as follows: [1 − (final tumor volume − initial tumor volume of the treated group)/average of (final tumor volume − initial tumor volume of the vehicle group)] × 100. Body weight of each mouse was also compared to that on the first day of treatment (day 0) and expressed as a percentage of day 0 value. […]
Figure S15. […] (a) CWR22Rv1 and PC3 cell viability was detected upon 7 days treatment of ITRI-90. […]

AR-negative PC3 cells = assay: Cell viability, PC3; assay type: cell-based, human; conditions: 7 days treatment
Protocol: as §1
Figure S15. ITRI-90 is ineffective for AR-n egative PC3 cells. (a) CWR22Rv1 and PC3 cell viability was detected upon 7 days treatment of ITRI-90. (b,c) Antitumor activity of ITRI -90 towards PC3 tumor xenografts.
PC3 tumor xenografts implanted in SCID mice were treated with ITRI-90 orally using 100 mg/kg twice daily dosing. The numbers of tumor in each group is as indicated. (b) Scatter plots of the tumor size. (c) Western blotting of AR and AR -V proteins in the tumors collected at the final time points. CWR22Rv1 xenograft samples from Figure 7i were used as positive control for AR and AR-V expression.
(1 picture or pasted object on this page, not shown here)

CWR22Rv1 xenograft = CWR22Rv1 xenograft efficacy study; assay type: in vivo
Protocol: Immunodifficient male C.B-17 SCID mice (NOD.CB17-Prkdc^scid/NcrCrlBltw) at 4–6 weeks of age were purchased from BioLASCO Taiwan Co., Ilan, Taiwan. All mice were housed in conventional cages in the AAALAC Full Accreditation (2011) in Industrial Technology Research Institute and were allowed to acclimatize and recover from shipping-related stress for one week prior to the study. The health of the mice was monitored by daily observations. Animals were kept in rooms at temperature of 22–26 °C with 40–70% humidity, positive pressure, 60% air recirculation, ventilation rate 15–20 changes per hour, and a controlled light–dark cycle (12–12 h). The order and location of each animal cage was randomly assigned to minimize potential confounders. CWR22Rv1 cells (5 × 10^6) were suspended in 100 μL of PBS with 30% Matrigel and subcutaneously implanted into the right flank of male C.B-17 SCID mice. Tumors were measured with calipers, and tumor size was calculated as follows: tumor volume (V) = (L × S^2)/2 (L, longest diameter, mm; S, shortest diameter, mm). When mean tumor volume reached 150–200 mm^3, the mice were randomly assigned into indicated groups (n = 5–6/group) and the day of initiating treatments was assigned as day 0. In the study using intraperitoneal (IP) injection, the mice received vehicle control (NMP: Cremophor: PBS = 1:2:7 (v:v:v)), ITRI-90 (10 mg/kg, BID) or ITRI-126 (10 mg/kg, BID) for the indicated days. In the study using oral (PO) gavage, the mice received vehicle control or ITRI-90 (100 mg/kg, BID) for 21 days. Tumor size and body weight of the animals were monitored and recorded two to three times per week. Mice were sacrificed when one of the tumor reached over 1000 mm^3 in size. Tumors were collected and immediately subjected to liquid nitrogen freezing and homogenization. The homogenized tumor samples were stored at −80 °C for subsequent western blotting analysis. The drug antitumor efficacy was presented as percentages of TGI of each tested animal, calculated as follows: [1 − (final tumor volume − initial tumor volume of the treated group)/average of (final tumor volume − initial tumor volume of the vehicle group)] × 100. Body weight of each mouse was also compared to that on the first day of treatment (day 0) and expressed as a percentage of day 0 value. All data points were included for calculation and the values are presented as mean ± SEM. Statistical analysis of the differences between two drug and vehicle treated groups was determined by two-tailed Student's t test. For negative control, same procedures as described above were followed. PC3 cells (5 × 10^6) mixing with 50% matrigel were subcutaneously implanted into both flanks of 8 male C.B-17 SCID mice, followed by random assignment for oral administration of vehicle control or ITRI-90 drug (100 mg/kg, BID) treatment (n = 4/group).

caspase 3/7 = assay: Caspase-Glo 3/7 activity; assay type: cell-based, human; conditions: 5 μM LNCaP, 1 μM CWR22Rv1, two days after treatment
Protocol: as §1

Work on Cc1ncsc1-c1ccc(CNC(=O)[C@@H]2C[C@H](O)CN2C(=O)[C@@H](NC(=O)COCCCCCCOc2ccc(C3CCN(C4=Nn5c(nnc5C(F)(F)F)CC4)CC3)cc2)C(C)(C)C)cc1 [ITRI-125, (2S,4S)-1-((S)-3,3-dimethyl-2-(2-(6-(4-(1-(3-(trifluoromethyl)-7,8-dihydro-[1,2,4]triazolo[4,3-b]pyridazin-6-yl)piperidin-4-yl)phenoxy)hexyloxy)acetamido)butanoyl)-4-hydroxy-N-(4-(4-methylthiazol-5-yl)benzyl)pyrrolidine-2-carboxamide] yielded an IC50 (LNCaP cells) of 6.36 ± 2.1 µM, a half-life at 1 μM [1] of over 0.5 h and a half-life at 10 μM [2] of over 4 h.

For Cc1ncsc1-c1ccc(CNC(=O)[C@@H]2C[C@H](O)CN2C(=O)[C@@H](NC(=O)COCCCCOc2ccc(C3CCN(C4=Nn5c(nnc5C(F)(F)F)CC4)CC3)cc2)C(C)(C)C)cc1 [ITRI-90, (2S,4S)-1-((S)-3,3-dimethyl-2-(2-(4-(4-(1-(3-(trifluoromethyl)-7,8-dihydro-[1,2,4]triazolo[4,3-b]pyridazin-6-yl)piperidin-4-yl)phenoxy)butoxy)acetamido)butanoyl)-4-hydroxy-N-(4-(4-methylthiazol-5-yl)benzyl)pyrrolidine-2-carboxamide], the IC50 (LNCaP cells) was 6.59 ± 3.13 µM, the “antitumor activity towards PC3 tumor xenografts” value [3] was “ineffectiveness” and the half-life at 1 μM [1] was over 0.5 h. For the same compound, the PC3 cell viability (AR-negative PC3 cells) was “ineffective”, the half-life at 10 μM [2] was over 4 h and the “toxicity monitored by animal body weight” value (CWR22Rv1 xenograft; IP 10 mg/kg twice daily) was “without obvious toxicities”. The “tumor growth inhibition (TGI)” value (CWR22Rv1 xenograft; IP 10 mg/kg twice daily, day 12, SCID mice, no hormone manipulation) was 76.64 ± 11.1%, the “toxicity monitored by animal body weight” value (CWR22Rv1 xenograft; PO 100 mg/kg twice daily, 21 days) was “without obvious toxicity” and the “tumor growth inhibition (TGI)” value (CWR22Rv1 xenograft; PO 100 mg/kg twice daily, day 21, SCID mice, no hormone ablation) was 71.73 ± 6.42%. The “AR-FL and AR-Vs protein levels in tumors” value (CWR22Rv1 xenograft; PO 100 mg/kg twice daily, final time point, western blot) was “reduced”.

In the case of O=C1CCC(N2Cc3c(NC(=O)COCCCCOc4ccc(C5CCN(C6=Nn7c(nnc7C(F)(F)F)CC6)CC5)cc4)cccc3C2=O)C(=O)N1 (centres unmarked) [ITRI-126, N-(2-(2,6-dioxopiperidin-3-yl)-1-oxoisoindolin-4-yl)-2-(4-(4-(1-(3-(trifluoromethyl)-7,8-dihydro-[1,2,4]triazolo[4,3-b]pyridazin-6-yl)piperidin-4-yl)phenoxy)butoxy)acetamide], the IC50 (LNCaP cells) is reported as 0.464 ± 0.093 µM, the “caspase 3/7 activity at lower concentrations” value (caspase 3/7) is reported as “induced strong caspase activity two days after drug treatment” and the “tumor growth inhibition (TGI)” value (CWR22Rv1 xenograft; IP 10 mg/kg twice daily, day 14, SCID mice, no hormone manipulation) is reported as 49.8 ± 11.1%. The “toxicity monitored by animal body weight” value (CWR22Rv1 xenograft; mouse, in vivo, ip, 10 mg/kg) was “without obvious toxicities”.
